# From patent publication US20180118721A1, “PYRIMIDINE DERIVATIVES” (Merck Patent GmbH, priority 2015, published 2018)
# How the values were obtained:
# [1] = Shake flask solubility measurement; format: physicochemical; conditions: aqueous buffer, thermodynamic from solid, phosphate buffer pH 7.4, 37° C.
# Protocol: Compound solubility in aqueous solution is determined by a standard method in the art, the shake flask method. Solubility measurement is performed under equilibrium conditions at pH 7.4. Samples are prepared by dissolving an excess of the test compound in a phosphate buffer (made up of 3,954 g sodium hydrogenphosphate-monohydrate, 6,024 g sodium chloride, 950 ml ultrapure water and adjusted to pH 7.4 with 0.1 M NaOH or 0.1 M HCl). These samples are shaken at 37° C. with 450 rpm (shaker: TiMix control Bühler) for 24 h in total until equilibrium is reached. After 7 hours shaking, the pH value of the sample is controlled and adjusted, if necessary. It is also checked that the sample (test compound) is available in excess. Shortly before the end of 24 h, samples are checked again for pH and precipitate. At the end of 24 h and after separation of the solid by filtration, the concentration of the compound in the filtrate is determined by liquid chromatography using […] (LC-UV).
# Sample preparation: Incubation hood: TH 15 Bühler; pH device 766 Calimatic Knick; pH electrode InLab 423 Mettler
# Chromatography Conditions:
# Column: Chromolith RP18e 100×3 mm
# Wavelength range: 190-400 nm • select a suitable evaluation wavelength
# Injection volume: Probe 5 μl and 15 μl; Standard 5 μl
# Column stove temperature: 37° C.
# Eluent A: water/formic acid (999:1; v/v)
# Eluent B: acetonitrile/formic acid (999:1; v/v)
# [2] = molecular target: T1, humanMTH1 (aminoacids 42 to 197) (Homo sapiens, UniProt P36639); experiment: Binding affinities and kinetics on MTH1 surfaces by surface plasmon resonance (SPR); conditions: on MTH1
# T1 construct: humanMTH1 (aminoacids 42 to 197); His tag at the N-terminus; purchased Abnova ab99390; host or cells: E. coli
smiles,measurement,setting,value
"CNc1cc(-c2cccc(Cl)c2Cl)nc(N)n1 [TH-287, reference compound]",solubility at 24 h,[1],22 µg/mL
same,residence time,[2]; calculated on the basis of the KD values,< 1 min
same,residence time,[2]; value in brackets,0.9 min
